# Data as given in patent publication US20070010671A1, “Novel quinazoline derivatives and methods of treatment related to the use thereof” (priority 2003, published 2007).
# Biological target: MCH receptor (Homo sapiens, UniProt Q99705)
# Assay: High throughput functional screening FLIPR/FDSS6000: inhibition of MCH-evoked intracellular Ca2+ changes
# Format: cell-based
# Conditions: class by percent of control at 10^-7 M or IC50
# Summary of the method: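 Constitutively active non-endogenous MCH-R cells; Fluo4-AM 4 μM, 2.5 mM probenecid, 1 hr, 37° C; cpd 3 min, 37° C; MCH 50 nM (antagonist mode); kinetic Ca2+ read Ex488/Em530, 290 s.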
row,SMILES,class
1,CN(C)c1nc(N[C@H]2CC[C@@H](CNC(=O)NCCc3ccccc3)CC2)nc2ccccc12 [compound 571],3 (Class 3: The value of percent of control at 10^−7 M was more than 60% or the value of IC50 was more than 200 nM.)
2,Cc1cc(C)cc(NC(=O)NC[C@H]2CC[C@@H](Nc3nc(N(C)C)c4ccccc4n3)CC2)c1 [compound 526],3 (Class 3: The value of percent of control at 10^−7 M was more than 60% or the value of IC50 was more than 200 nM.)
3,"Cc1ccc(NC(=O)NC[C@H]2CC[C@@H](Nc3nc(N(C)C)c4ccccc4n3)CC2)cc1[N+](=O)[O-] [compound 558, N-[(cis-4-{[4-(dimethylamino)quinazolin-2-yl]amino}cyclohexyl)methyl]-N′-(4-methyl-3-nitrophenyl)urea]",2 (Class 2: The value of percent of control at 10^−7 M was from 40% to 60% or the value of IC50 was from 50 nM to 200 nM.)
4,Cc1cc(NC(=S)NC[C@H]2CC[C@@H](Nc3nc(N(C)C)c4ccccc4n3)CC2)ccc1Br [compound 736],3 (Class 3: The value of percent of control at 10^−7 M was more than 60% or the value of IC50 was more than 200 nM.)
5,CN(C)c1nc(N[C@H]2CC[C@@H](CNC(=O)Nc3ccc(OCc4ccccc4)cc3)CC2)nc2ccccc12 [compound 539],3 (Class 3: The value of percent of control at 10^−7 M was more than 60% or the value of IC50 was more than 200 nM.)
6,"CN(C)c1nc(N[C@H]2CC[C@@H](CNC(=O)NC(c3ccccc3)c3ccccc3)CC2)nc2ccccc12 [compound 573, N-[(cis-4-{[4-(dimethylamino)quinazolin-2-yl]amino}cyclohexyl)methyl]-N′-(diphenylmethyl)urea]",1 (Class 1: The value of percent of control at 10^−7 M was less than 40% or the value of IC50 was less than 50 nM.)
7,CN(C)c1nc(N[C@H]2CC[C@@H](NC(=S)NCCC3=CCCCC3)CC2)nc2ccccc12 [compound 358],2 (Class 2: The value of percent of control at 10^−7 M was from 40% to 60% or the value of IC50 was from 50 nM to 200 nM.)
8,"Cc1cc(Br)cc(C)c1NC(=O)N[C@H]1CC[C@@H](Nc2nc(N(C)C)c3ccccc3n2)CC1 [compound 333, N-(4-bromo-2,6-dimethylphenyl)-N′-(cis-4-{[4-(dimethylamino)quinazolin-2-yl]amino}cyclohexyl)urea]",1 (Class 1: The value of percent of control at 10^−7 M was less than 40% or the value of IC50 was less than 50 nM.)
9,COc1ccc(Cl)cc1NC(=S)NC[C@H]1CC[C@@H](Nc2nc(N(C)C)c3ccccc3n2)CC1 [compound 706],2 (Class 2: The value of percent of control at 10^−7 M was from 40% to 60% or the value of IC50 was from 50 nM to 200 nM.)
10,CN(C)c1nc(N[C@H]2CC[C@@H](CNC(=O)NCc3ccc(Cl)c(Cl)c3)CC2)nc2ccccc12 [compound 521],3 (Class 3: The value of percent of control at 10^−7 M was more than 60% or the value of IC50 was more than 200 nM.)
11,CN(C)c1nc(N[C@H]2CC[C@@H](CNC(=S)Nc3cccc(Br)c3)CC2)nc2ccccc12 [compound 581],3 (Class 3: The value of percent of control at 10^−7 M was more than 60% or the value of IC50 was more than 200 nM.)
12,"CCOC(=O)[C@H](Cc1ccccc1)NC(=O)N[C@H]1CC[C@@H](Nc2nc(N(C)C)c3ccccc3n2)CC1 (relative stereo) [compound 336, ethyl N-{[(cis-4-{[4-(dimethylamino)quinazolin-2-yl]amino}cyclohexyl)amino]carbonyl}phenylalaninate]",1 (Class 1: The value of percent of control at 10^−7 M was less than 40% or the value of IC50 was less than 50 nM.)
13,"CCCc1ccccc1NC(=O)NC[C@H]1CC[C@@H](Nc2nc(N(C)C)c3ccccc3n2)CC1 [compound 513, N-[(cis-4-{[4-(dimethylamino)quinazolin-2-yl]amino}cyclohexyl)methyl]-N′-(2-propylphenyl)urea]",1 (Class 1: The value of percent of control at 10^−7 M was less than 40% or the value of IC50 was less than 50 nM.)
14,CN(C)c1nc(N[C@H]2CC[C@@H](NC(=S)Nc3ccc(Cl)c([N+](=O)[O-])c3)CC2)nc2ccccc12 [compound 270],3 (Class 3: The value of percent of control at 10^−7 M was more than 60% or the value of IC50 was more than 200 nM.)
15,Cc1ccc(Cl)c(NC(=O)NC[C@H]2CC[C@@H](Nc3nc(N(C)C)c4ccccc4n3)CC2)c1 [compound 486],2 (Class 2: The value of percent of control at 10^−7 M was from 40% to 60% or the value of IC50 was from 50 nM to 200 nM.)
16,"CCc1cccc(CC)c1NC(=S)N[C@H]1CC[C@@H](Nc2nc(N(C)C)c3ccccc3n2)CC1 [compound 250, N-(2,6-diethylphenyl)-N′-(cis-4-{[4-(dimethylamino)quinazolin-2-yl]amino}cyclohexyl)thiourea]",1 (Class 1: The value of percent of control at 10^−7 M was less than 40% or the value of IC50 was less than 50 nM.)
17,COc1ccc([N+](=O)[O-])cc1NC(=S)NC[C@H]1CC[C@@H](Nc2nc(N(C)C)c3ccccc3n2)CC1 [compound 725],2 (Class 2: The value of percent of control at 10^−7 M was from 40% to 60% or the value of IC50 was from 50 nM to 200 nM.)
18,Cc1ccc(NC(=S)N[C@H]2CC[C@@H](Nc3nc(N(C)C)c4ccccc4n3)CC2)c([N+](=O)[O-])c1 [compound 279],3 (Class 3: The value of percent of control at 10^−7 M was more than 60% or the value of IC50 was more than 200 nM.)
19,COc1ccc(NC(=S)NC[C@H]2CC[C@@H](Nc3nc(N(C)C)c4ccccc4n3)CC2)c(C)c1 [compound 743],2 (Class 2: The value of percent of control at 10^−7 M was from 40% to 60% or the value of IC50 was from 50 nM to 200 nM.)

# Same assay, conditions: class by percent of control at 10^-7 M or by IC50; read-out: class
row,SMILES,IC50 [nM]
1,CN(C)c1nc(N[C@H]2CC[C@@H](NC(=O)Nc3ccc(Br)cc3Cl)CC2)nc2ccccc12 [compound 143],> 200
2,CN(C)c1nc(N[C@H]2CC[C@@H](NC(=O)Nc3cccc([N+](=O)[O-])c3)CC2)nc2ccccc12 [compound 135],> 200
3,CN(C)c1nc(N[C@H]2CC[C@@H](NC(=O)Nc3ccc(F)c(Cl)c3)CC2)nc2ccccc12 [compound 130],50 to 200
4,"CN(C)c1nc(N[C@H]2CC[C@@H](NC(=O)NC3C[C@H]3c3ccccc3)CC2)nc2ccccc12 (stereo partly drawn) [compound 51, N-(cis-4-{[4-(dimethylamino)quinazolin-2-yl]amino}cyclohexyl)-N′-[(2S)-2-phenylcyclopropyl]urea]",< 50
5,Cc1ccc(Cl)cc1NC(=O)N[C@H]1CC[C@@H](Nc2nc(N(C)C)c3ccccc3n2)CC1 [compound 836],> 200
6,"CN(C)c1nc(N[C@H]2CC[C@@H](NC(=S)Nc3ccc(C#N)cc3)CC2)nc2ccccc12 [compound 160, N-(4-cyanophenyl)-N′-(cis-4-{[4-(dimethylamino)quinazolin-2-yl]amino}cyclohexyl)thiourea]",< 50
7,Cc1cccc(NC(=S)N[C@H]2CC[C@@H](Nc3nc(N(C)C)c4ccccc4n3)CC2)c1 [compound 181],> 200
8,CN(C)c1nc(N[C@H]2CC[C@@H](NC(=S)Nc3c(Cl)cccc3Cl)CC2)nc2ccccc12 [compound 171],> 200
9,Cc1onc(-c2ccccc2)c1NC(=S)NC[C@H]1CC[C@@H](Nc2nc(N(C)C)c3ccccc3n2)CC1 [compound 819],50 to 200

# Same assay, conditions: class by percent of control at 10^−7 M or by IC50; read-out: class
row,SMILES,IC50 [nM]
1,"COc1cccc(NC(=O)NC[C@H]2CC[C@@H](Nc3nc(N(C)C)c4ccccc4n3)CC2)c1 [Example 1017, N-[(cis-4-{[4-(dimethylamino)quinazolin-2-yl]amino}cyclohexyl)methyl]-N′-(3-methoxyphenyl)urea]",50 to 200
2,"Cc1cccc(OCC(=O)N[C@H]2CC[C@@H](Nc3nc(N(C)C)c4ccccc4n3)CC2)c1 [Example 1079, N-(cis-4-{[4-(dimethylamino)quinazolin-2-yl]amino}cyclohexyl)-2-(3-methylphenoxy)acetamide]",< 50
3,"CN(C)c1nc(N[C@H]2CC[C@@H](C(=O)NCc3ccc(F)c(Br)c3)CC2)nc2ccccc12 [Example 1161, cis-N-(3-bromo-4-fluorobenzyl)-4-{[4-(dimethylamino)quinazolin-2-yl]amino}cyclohexanecarboxamide]",< 50
4,"CN(C)c1nc(N[C@H]2CC[C@@H](NC(=O)c3ccc(OC(F)(F)F)cc3)CC2)nc2cc(F)c(F)cc12 [Example 1211, N-(cis-4-{[4-(dimethylamino)-6,7-difluoroquinazolin-2-yl]amino}cyclohexyl)-4-(trifluoromethoxy)benzamide]",> 200
5,"CN(C)c1nc(N[C@H]2CC[C@@H](C(=O)NCc3cc(F)c(F)c(F)c3)CC2)nc2ccccc12 [Example 1171, cis-4-{[4-(dimethylamino)quinazolin-2-yl]amino}-N-(3,4,5-trifluorobenzyl)cyclohexanecarboxamide]",< 50
6,"CN(C)c1nc(N[C@H]2CC[C@@H](C(=O)NCc3ccc(Cl)cc3F)CC2)nc2ccccc12 [Example 1164, cis-N-(4-chloro-2-fluorobenzyl)-4-{[4-(dimethylamino)quinazolin-2-yl]amino}cyclohexanecarboxamide]",< 50
7,"CN(C)c1nc(N[C@H]2CC[C@@H](C(=O)NCc3ccc(C(F)(F)F)cc3)CC2)nc2ccccc12 [Example 1153, cis-4-{[4-(dimethylamino)quinazolin-2-yl]amino}-N-[4-(trifluoromethyl)benzyl]cyclohexanecarboxamide]",< 50
8,"COc1cccc(NCC(=O)N[C@H]2CC[C@@H](Nc3nc(N(C)C)c4ccccc4n3)CC2)c1 [Example 1090, N-(cis-4-{[4-(dimethylamino)quinazolin-2-yl]amino}cyclohexyl)-N2-(3-methoxyphenyl)glycinamide]",< 50
9,"CN(C)c1nc(N[C@H]2CC[C@@H](NC(=O)C(O)c3c(F)cccc3F)CC2)nc2ccccc12 (relative stereo) [Example 1110, 2-(2,6-difluorophenyl)-N-(cis-4-{[4-(dimethylamino)quinazolin-2-yl]amino}cyclohexyl)-2-hydroxyacetamide]",> 200
